Reference: US11547677B2, “Transmucosal delivery system for idebenone” (LTS LOHMANN THERAPIE-SYSTEME AG, priority 2017, dated 2023)
Counter-ions that a name gives are not always drawn.

Experiments:
[1] = n-octanol/water; cited from earlier work
[2] = Saturation concentration of idebenone in the inner, hydrophobic, phase (HPLC of supernatant); assay type: physicochemical; conditions: in composition of the 2nd table (vitamin E, Polysorbate 80, methyl salicylate, eucalyptol, tributyl citrate, Brij S2)
Procedure: Idebenone is added in excess to the inner, hydrophobic, phase, so that even after relatively long stirring solid dregs of active ingredient are still present. Then the dregs are removed by centrifuging. The resulting supernatant contains idebenone in its saturation concentration. This is determined by analysis for example by means of HPLC. The saturation concentration of idebenone for an exemplified composition according to the invention was determined as follows. [table]

[3] = oral administration; cited from earlier work

saturation concentration ([2]; 4° C.)	saturation concentration ([2]; room temperature)	SMILES	LogP [1]	idebenone metabolised in the first-pass metabolism [3]
		CCCCOC(=O)CC(O)(CC(=O)OCCCC)C(=O)OCCCC [TBC, tributyl citrate]	LogP = 4.7	
		COC(=O)c1ccccc1O [MS, methyl salicylate]	LogP = 2.24	
103 g/L	145 g/L	COC1=C(OC)C(=O)C(CCCCCCCCCCO)=C(C)C1=O [idebenone, 2-(10-hydroxydecyl)-5,6-dimethoxy-3-methyl-cyclohexa-2,5-diene-1,4-dione]		more than 98%
		CC12CCC(CC1)C(C)(C)O2 [EUC, eucalyptol]	LogP = 2.8	
